Data as given in US10759754B2, “Aminobenzoic acid derivatives for use as anti-inflammatory agents, anti-metastatic agents and/or anticancer agents” (3R VALO, S.E.C., priority 2016, dated 2020).
“Also recorded” adds a separate entry of the source.

Experiments:
STAT1 [1] = assay: Western blot of phosphorylated STAT1 in IFNγ-activated human macrophages; format: cell-based; conditions: human macrophages pretreated 30 min at 10 and 50 μM; 30 min activation with 50 U/mL IFNγ; hydrochloride
Protocol: (§1) Cell signaling studies: THP1-derived human macrophages (750×10^3 cells/mL) and MB49-I cells (500×10^3 cells/mL) were pretreated for 30 min with vehicle (DMSO), compounds 4 and 5, at 10, 25 or 50 μM; and then washed and recovered immediately (t=0 min) or after 30 min of activation with 50 U/mL IFNγ, 25 ng/mL IL6, or 10 ng/mL TNFα. Cell lysates were prepared and analyzed by immunoblotting as described.^21-23,25 Briefly, protein samples were resolved by SDS-PAGE under reducing conditions and transferred onto a PVDF membrane. Blots were first probed with rabbit polyclonal antibodies against phospho-STAT1 (pSTAT1), pSTAT3, or p-IκB (all at 1:2000) overnight at 4° C. Blots were then incubated with HRP-conjugated goat anti-rabbit IgG Ab (1:3000) for 1 h at room temperature. The same blots were stripped and then probed with anti-STAT1 or anti-STAT3 Abs (both at 1:1000). In both cases, probed molecules were visualized using an enhancement chemiluminescence detection kit (Thermo Fisher Scientific).

STAT3 = assay: Western blot of phosphorylated STAT3 in IL6-activated human macrophages; format: cell-based; conditions: human macrophages pretreated 30 min at 10 and 50 μM; 30 min activation with 25 ng/mL IL6; hydrochloride
Protocol: as §1

CD40 = assay: Flow cytometry of CD40 surface antigen in IFNγ-activated human macrophages; format: cell-based; conditions: compound 4 at 10 μM, compound 5 at 25 μM, hydrochloride
Protocol: (§2) Surface antigen expression analysis. To study membrane receptor expression, THP1-derived human macrophages (750×10^4 cells/mL) were pretreated for 3 h with DMSO or compounds 4 and 5, and then left untreated (control) or treated for 48 h with 50 U/mL IFNγ. The expression level of MHC-II and CD40 was evaluated by flow cytometry as described.^21-23

MHC-II = assay: Flow cytometry of MHC-II surface antigen in IFNγ-activated human macrophages; format: cell-based; conditions: compound 4 at 10 μM, compound 5 at 25 μM, hydrochloride
Protocol: as §2

[2] = system: macrophage-like J774A.1 cells; assay: IFNγ/TNFα-induced NO production (Griess) in J774A.1 cells; format: cell-based, murine; conditions: pretreatment then IFNγ and TNFα, hydrochloride
Protocol: (§3) Evaluation of NO and Urea production by chemical methods. The MB49-I cells and the J774A.1 cells (25×10^3 cells/well) were grown and pretreated, as indicated, with various anti-inflammatory derivatives, precursors and mono-functional derivatives for a period of 3 h. Afterwards the cells were washed twice with 10% FBS RPMI-1640 and then activated to produce NO for a period of 24 h with cytokines INFγ and TNFα. NO production was measured using the Griess reagent method as previously described.^27 This method involves the detection of nitrite ions (NO2^−) formed by the spontaneous oxidation of NO under physiological conditions. According the manufacture procedure (Life Technologies; # G-7921), equal volumes of sulfanilic acid and N-(1-naphthyl)ethylenediamine are mixed together to form the Griess reagent. In the presence of NO2^−, sulfanilic acid is converted to a diazonium salt, which in turn is coupled to N-(1-naphthyl)ethylenediamine to produce a pink coloration that is measured with a spectrophotometer (Biotek, synergy HT) at 548 nm. In the same manner, urea synthesis through arginase-1 activity was measured using commercially available kit.

UBC cell line MB49-I = assay: IFNγ/TNFα-induced NO production (Griess) in MB49-I cells; format: cell-based, murine; conditions: 10 and 50 μM
Protocol: as §3

MB49-I tumors = assay: Ectopic UBC model, MB49-I tumors implanted in the flank of male mice; format: in vivo; conditions: i.p. 150 μM during 18 days, tumors recovered day 20
Protocol: Ectopic UBC model. Male C57BL/6J mice (6-8 weeks old), each weighing 15-18 g, were used for the experiments (supplied by Charles River). The mice were housed with free access to food and water on a 12:12 h light:dark cycle with the room temperature maintained at 21° C. MB49 cells, MB49-I cells, and iNOS-deficient MB49-I cells ([…] in 100 μL PBS) were injected subcutaneously (s.c.) into the right flank of the mice. Growth rates of the s.c. tumors were monitored. The size of tumors was determined every 3 days for 24-28 days using a digital caliper and by measuring luciferin luminescence at days 15 and 25 using the IVIS imaging system. A blinded observer measured tumor length and width. The volume of the tumor was calculated from the formula: Length×width2×0.52, where length and width were tumor diameters measured with calipers in mutually perpendicular directions. At a tumor size of approximately 10 mm^3 the mice were divided into different groups. A control group received PBS as treatment. As indicated, other groups were treated at different doses (90, 150 or 300 μM) with an intraperitoneal (i.p.) injection of compounds 4 or 8 every 3-4 days for 18-20 days.^24,27

MB49-I cells = assay: LPS/IFNγ-induced NO production in MB49-I cells; format: cell-based, murine
Protocol: as §3, with “Afterwards the cells were washed twice with 10% FBS RPMI-1640 and then activated to produce NO for a period of 24 h with cytokines INFγ and TNFα.” left out

STAT1 [3] = assay: Western blot of phosphorylated STAT1 in IFNγ-activated RAW 264.7 cells; format: cell-based, murine; conditions: 90 min pretreatment at 20 and 37.5 μM, 5 ng/mL IFNγ 15 min
Protocol: as §1

[4] = system: IκB / NFκB signaling pathway; assay: Western blot of phosphorylated IκB in LPS-activated RAW 264.7 cells; format: cell-based, murine; conditions: 90 min pretreatment at 20 and 37.5 μM, 100 ng/mL LPS 15 min
murine UBC MB49-I cells = conditions: 90 min pretreatment, counted after 24 h
[5] = system: murine macrophages RAW 264.7 cells; conditions: 90 min pretreatment, counted after 24 h
[6] = system: human macrophages THP-1 cells; conditions: 90 min pretreatment, counted after 24 h

## Cl.NNC(=O)c1ccc(N2C(=O)C=CC2=O)cc1 [Compound 5, 4-(2,5-dioxo-2,5-dihydro-pyrrol-1-yl)-benzoic acid hydrazide hydrochloride]
STAT1 [1]
  IFNγ-induced STAT1 activation (ratio of phosphorylated/no phosphorylated proteins): decreased; also recorded: efficiently inhibited
STAT3
  IL6-induced STAT3 activation (ratio of phosphorylated/no phosphorylated proteins): decreased; also recorded: efficiently inhibited
CD40
  IFNγ-induced CD40 expression: effective in reducing; also recorded: efficiently inhibited
MHC-II
  IFNγ-induced MHC-II expression: effective in reducing; also recorded: efficiently inhibited
[2]
  combined IFNγ/TNFα-induced NO synthesis: effective in reducing; also recorded: efficiently inhibited
UBC cell line MB49-I
  combined IFNγ/TNFα-induced NO synthesis: efficiently inhibited

## CC(=O)N(NC(=O)c1ccc(N2C(=O)C=CC2=O)cc1)C(C)=O [Compound 8, 4-(2,5-dioxo-2,5-dihydro-pyrrol-1-yl)-benzoic acid N′-diacetyl-hydrazide]
MB49-I tumors
  tumor volume of muscle-invasive MB49-I tumors: anti-proliferative activity; also recorded: more efficient than compound 4
MB49-I cells; 20 and 37.5 μM
  IFNγ/LPS-induced NO production: more efficient than compound 4
STAT1 [3]
  IFNγ-activated STAT1 signaling pathway (ratio p-STAT1/STAT1): more efficient than other compounds
[4]
  LPS-activated NFκB signaling pathway (ratio p-IkB/IkB): efficient to inhibit
Murine UBC MB49-I cells
  cytotoxic effect (cell viability): lower than that of compound 4
[5]
  cytotoxic effect (cell viability): lower than that of compound 4
[6]
  cytotoxic effect (cell viability): lower than that of compound 4

## CC(=O)N(NC(=O)OC(C)(C)C)C(=O)c1ccc(N2C(=O)C=CC2=O)cc1 [Compound 10, N-acetyl-N-[4-(2,5-dioxo-2,5-dihydro-pyrrol-1-yl)-benzoyl]-hydrazinecarboxylic acid tert-butyl ester]
[4]
  LPS-activated NFκB signaling pathway (ratio p-IkB/IkB): efficient to inhibit

## CC(=O)N(C(=O)OC(C)(C)C)N(C(C)=O)C(=O)c1ccc(N2C(=O)C=CC2=O)cc1 [Compound 11, N,N′-diacetyl-N′-[4-(2,5-dioxo-2,5-dihydro-pyrrol-1-yl)-benzoyl]-hydrazinecarboxylic acid tert-butyl ester]
[4]
  LPS-activated NFκB signaling pathway (ratio p-IkB/IkB): efficient to inhibit

## CC(C)(C)OC(=O)NNC(=O)c1ccc(N2C(=O)CCC2=O)cc1 [Compound 12, N′-[4-(2,5-dioxo-pyrrolidin-1-yl)-benzoyl]-hydrazine carboxylic acid tert-butyl ester]
MB49-I cells; compound 4 at 30 μM, compound 12 at 10, 20, 37.5 and 50 μM
  LPS/IFNγ-induced NO synthesis: lost its anti-inflammatory activity; also recorded: does not affect
